The subject of one experiment is A2780. Put plainly: Phototoxicity, neutral red dye uptake, A2780 cells. In kind it is cell-based. The method, then:
(§1) 2×6 ft Cosmolux RA Plus (Cosmedico), 15500/100 W light sources were used, each filtered to attenuate UVB/UVC wavelengths. Irradiance was measured with a Waldmann PUMA meter, calibrated to the source using a double grating Spectroradiometer (Bentham, UK).
(§2) Immediately before use, the compounds were dissolved in warm Earle's Balanced Salt Solution (EBSS), sonicated and vortexed to assist dissolution. For experiments, cells were seeded at densities of 3- or 5×10^4 cells/cm^2. After overnight incubation, washed cells were incubated with test compounds in EBSS for 1 h at 310 K/5% CO2. Cells were then irradiated with 5 J cm^−2 glass filtered UVA (1.77 mW cm^−2: λmax 365 nm) for 50 min. Test compounds were removed and cells either prepared immediately for photogenotoxicity assays, or incubated with complete medium for 24 h before assessing phototoxicity. Control plates were treated identically to the test plates and sham irradiated.
(§3) Phototoxicity was monitored by measuring the uptake of neutral red dye into viable cells. Briefly, after irradiation cells were washed and then incubated with DMEM containing 5% FCS, 1% NEAA and 50 μg ml^−1 neutral red dye for 3 h at 310 K/5% CO2. After this time, cells were rapidly washed with formaldehyde containing 1% (w/v) CaCl2, and solubilised in 50% EtOH containing 1% acetic acid. Absorbance was read at 540 nm against a solubilisation solution as blank. The IC50 value was defined as the concentration of compound that inhibited dye uptake by 50% and was calculated using non-linear regression (Graphpad Prism). Goodness of fit was determined from the R^2 values of the curves and 95% confidence intervals.

A further experiment relates to HaCaT. In words: Phototoxicity, neutral red dye uptake, HaCaT cells. In kind it is cell-based. The procedure: as §1, §2, §3
The test system of a further experiment is A2780CIS. Put plainly: Phototoxicity, neutral red dye uptake, A2780CIS cells. It is filed as cell-based. The method, then:
as §1, §2, §3

For experiment [1], the system named is polynucleotide having the sequence ATACATGGTACATA
Put plainly: Photoactivation and binding to 14mer polynucleotide. The note with it: 1 mM ATACATGGTACATA, blue light as example 9; NMR. The method, then:
The procedure of example 9 was repeated with a 1 mM solution of a polynucleotide having the sequence ATACATGGTACATA, and using the compound obtained in example 2 in place of that obtained in example 1.

[2] abbreviates: dark, sham irradiated control, read-out: IC50 Value A2780 Dark.
Setting [3] is: irradiated 5 J cm^-2 UVA, λmax 365 nm, 50 min, neutral red uptake after 24 h, read-out: IC50 Value A2780 365 nm.
Setting [4] is: dark, sham irradiated control, read-out: IC50 Value HaCaT Dark.
[5] abbreviates: irradiated 5 J cm^-2 UVA, λmax 365 nm, 50 min, neutral red uptake after 24 h, read-out: IC50 Value HaCaT 365 nm.
Setting [6] is: dark, sham irradiated control, read-out: IC50 Value A2780CIS Dark.
Where [7] appears, read: irradiated 5 J cm^-2 UVA, λmax 365 nm, 50 min, neutral red uptake after 24 h, read-out: IC50 Value A2780CIS 365 nm.

Like-named read-outs stand apart in the source and are kept apart here.

By IC50 is commonly meant the concentration that gives 50% inhibition.

Consider “Trans,trans,trans-[Pt(N3)2(OH)2(NH3)(2-pic)] [FM171]”, for which the IC50 with A2780 (setting [2]) was greater than 236 µM; in the experiment on A2780 (setting [3]), 51 µM; in the experiment with HaCaT (setting [4]) it was greater than 236 µM; with HaCaT (setting [5]), 55.3 µM; in the experiment on A2780CIS (setting [6]) it was greater than 236 µM; in the experiment on A2780CIS (setting [7]), 59.8 µM.

With “Trans,trans,trans-[Pt(N3)2(OH)2(NH3)(py)] [FM165]”, the half-inhibitory concentration (IC50) is greater than 244 µM in the experiment with A2780 (setting [2]); 1.9 µM in the experiment with A2780 (setting [3]); greater than 244 µM in the experiment with HaCaT (setting [4]); 6.1 µM in the experiment on HaCaT (setting [5]); greater than 244 µM in the experiment on A2780CIS (setting [6]); 16.9 µM with A2780CIS (setting [7]).

On to “Trans,trans,trans-[Pt(N3)2(OH)2(NH3)(4-pic)] [FM174]”, for which the IC50 was found to be 98.8 µM in the experiment on HaCaT (setting [4]) and 6.5 µM in the experiment on HaCaT (setting [5]).

As for “Trans,trans,trans-[Pt(N3)2(OH)2(NH3)(tz)] [FM172]”, the 50% inhibitory concentration (IC50) in the experiment on A2780 (setting [2]) was 187 µM; with A2780 (setting [3]), 5.4 µM; with HaCaT (setting [4]) it was greater than 241 µM; in the experiment with HaCaT (setting [5]), 5.8 µM; in the experiment with A2780CIS (setting [6]) it was greater than 241 µM; in the experiment with A2780CIS (setting [7]), 16.1 µM.

Turning to “Cis,trans-[Pt^IV(en)(N3)2(OH)2] [Example 2]”, the “Binding to 14mer polynucleotide after photoactivation” value in experiment [1] was “binding of species containing the cis-[PtII(en)] moiety to the GG moiety had taken place”.

(Values after patent US7928097B2, “Photoreactive compounds and compositions” (priority 2001, dated 2011).)
